The test system of assay [1] is Candida albicans ATCC90028. Description: Radial diffusion assay (RDA), Candida ATCC90028. It counts as cell-based. The settings on record: zone of inhibition; mean of three measurements; Table 1. How it is done: (§1) Escherichia coli 37.4 isolate was originally obtained from a patient with a chronic venous ulcer, while Staphylococcus aureus isolate BD14312 was from a patient with atopic dermatitis. Staphylococcus aureus ATCC29213 and Candida albicans ATCC90028 were both obtained from the Clinical Bacteriology Department at Lund University hospital.
(§2) Essentially as described earlier (Lehrer et al., J Immunol Methods 137, 167-173, 1991, Andersson et al., Eur J Biochem 271, 1219-1226, 2004) bacteria were grown to mid-logarithmic phase in 10 ml of full-strength (3% w/v) trypticase soy broth (TSB) (Becton-Dickinson, Cockeysville, Md.). The microorganisms were then washed once with 10 mM Tris, pH 7.4.4×10^6 bacterial colony forming units were added to 15 ml of the underlay agarose gel, consisting of 0.03% (w/v) TSB, 1% (w/v) low electroendosmosis type (EEO) agarose (Sigma, St Louis Mo.) and 0.02% (v/v) Tween 20 (Sigma). The underlay was poured into a ø 144 mm petri dish. After agarose solidification, 4 mm-diameter wells were punched and 6 μl of test sample was added to each well. Plates were incubated at 37° C. for 3 hours to allow diffusion of the peptides. The underlay gel was then covered with 15 ml of molten overlay (6% TSB and 1% Low-EEO agarose in dH2O). Antimicrobial activity of a peptide is visualized as a zone of clearing around each well after 18-24 hours of incubation at 37° C.

Assay [2] concerns Staphylococcus aureus isolate BD14312. Description: Radial diffusion assay (RDA), S. aureus BD14312. It counts as cell-based. To be noted: zone of inhibition; mean of three measurements; Table 1. How it is done: as §1, §2
Assay [3] deals with Staphylococcus aureus ATCC29213. Description: Radial diffusion assay (RDA), S. aureus ATCC29213. Type of assay: cell-based. To be noted: zone of inhibition. How it is done:
as §1, §2

In a further assay the test system is Escherichia coli 37.4. Description: Radial diffusion assay (RDA), E. coli 37.4. Type of assay: cell-based. The settings on record: for RDA (mm) E. coli 37.4 Mean: zone of inhibition. How it is done: as §1, §2
A short description of assay [4]: Pore formation / carboxyfluorescein leakage of liposomes. To be noted: 10 mM Tris, pH 7.4. How it is done:
(§3) Peptides were tested for binding to lipid bilayers, resulting pore formation and peptide secondary structure in the lipid membranes. Lipid membranes investigated included both zwitterionic ones (containing phosphatidylcholine) and anionic ones (containing mixtures of phosphatidylcholine and phosphatidic acid). Lipid membranes were deposited at silica, and the binding of the peptides from 10 mM Tris, pH 7.4, was directly monitored by ellipsometry. […] Pore formation in these liposomes were determined by including carboxyfluorescein in the liposomes and following the fluorescence intensity increase on addition of peptides to the liposomes. Furthermore, the secondary structure of the peptides in the liposome lipid membranes was probed by circular dichroism.

Assay [5] can be described thus: Binding to lipid bilayers by ellipsometry. To be noted: 10 mM Tris, pH 7.4. The method, then: as §3
Assay [6] concerns Pseudomonas aeruginosa 15159. Description: Radial diffusion assay (RDA), P. aeruginosa 15159. Type of assay: cell-based. The settings on record: 100 μM of peptides, n=9. How it is done:
as §2
Based on the criteria defined in EXAMPLE 1 several new variants with increased positive net charge, high helicity and increased amphipathicity were designed and synthesized. In order to rationally test as many different variants as possible a PEP screen library was utilized as described above. […]

Assay [7] in a line: Heparin binding on nitrocellulose with radiolabelled heparin. To be noted: unlabelled heparin 6 mg/ml. The method, then:
Peptides were tested for heparin binding activities. Peptides were applied on nitrocellulose membranes (Hybond, Amersham Biosciences). Membranes were blocked (PBS, pH 7.4, 0.25% Tween 20, 3% bovine serum albumin) for one hour and incubated with radiolabelled heparin for one hour in the same buffer. […] The membranes were washed (3×10 min in PBS, pH 7.4, 0.25% Tween 20). A Bas 2000 radio imaging system (Fuji) was used for visualization of radioactivity.

For another assay, the system named is P. aeruginosa 27.1. Description: Radial diffusion assay analysis of CNY variants (Example 4). To be noted: peptides 100 μM. It counts as cell-based, Pseudomonas aeruginosa. The method, then: Radial diffusion assays (RDA) were performed essentially as described earlier (Andersson et al., Eur J Biochem, 2004, 271:1219-1226). Briefly, bacteria (P. aeruginosa 27.1) were grown to mid-logarithmic phase in 10 ml of full-strength (3% w/v) trypticase soy broth (TSB) (Becton-Dickinson, Cockeysville, Md.). The microorganisms were washed once with […] Tris, pH 7.4. 4×10^6 bacterial cfu or 1×10^5 fungal cfu was added to 5 ml of the underlay agarose gel, consisting of 0.03% (w/v) TSB, 1% (w/v) low-electroendosmosistype (Low-EEO) agarose (Sigma, St Louise Mo.) and a final concentration of 0.02% (v/v) Tween 20 (Sigma). The underlay was poured into a Ø 85 mm petri dish. After agarose solidified, 4 mm-diameter wells were punched and 6 μl of test sample was added to each well. Plates were incubated at 37° C. for 3 hours to allow diffusion of the peptides. The underlay gel was then covered with 5 ml of molten overlay (6% TSB and 1% Low-EEO agarose in dH2O). Antimicrobial activity of a peptide is visualized as a clear zone around each well after 18-24 hours of incubation at 37° C. Synthetic peptides were tested in concentrations of 100 μM to determine the antibacterial effect (FIG. 8). CNY21; […], CNY20; […], CNY21R-S; […], CNY20R-S; […], CNY21H-L: […], CNY21H-K: […], CNY21H-P: […].

Setting [8] is: Table 2, second generation PEPscreen.

Take `CC[C@H](C)[C@H](NC(=O)[C@H](CCCCN)NC(=O)[C@H](CCC(=O)O)NC(=O)[C@H](CCCCN)NC(=O)[C@H](CO)NC(=O)[C@H](CCCCN)NC(=O)[C@H](CCCNC(=N)N)NC(=O)[C@H](Cc1ccccc1)NC(=O)[C@H](Cc1ccccc1)NC(=O)[C@H](CC(=O)O)NC(=O)CNC(=O)[C@H](CC(C)C)NC(=O)[C@@H](N)CC(C)C)C(=O)NCC(=O)N[C@@H](CCCCN)C(=O)N[C@@H](CCC(=O)O)C(=O)N[C@@H](Cc1ccccc1)C(=O)N[C@@H](CCCCN)C(=O)N[C@@H](CCCNC(=N)N)C(=O)N[C@H](C(=O)N[C@H](C(=O)N[C@@H](CCC(N)=O)C(=O)N[C@@H](CCCNC(=N)N)C(=O)N[C@H](C(=O)N[C@@H](CCCCN)C(=O)N[C@@H](CC(=O)O)C(=O)N[C@@H](Cc1ccccc1)C(=O)N[C@@H](CC(C)C)C(=O)N[C@@H](CCCNC(=N)N)C(=O)N[C@@H](CC(N)=O)C(=O)N[C@@H](CC(C)C)C(=O)N[C@H](C(=O)N1CCC[C@H]1C(=O)N[C@@H](CCCNC(=N)N)C(=O)N[C@H](C(=O)N[C@@H](CCC(=O)O)C(=O)N[C@@H](CO)C(=O)O)[C@@H](C)O)C(C)C)[C@@H](C)CC)C(C)C)[C@@H](C)CC` [LL37, reference compound]: the “RDA (mm) Candida ATCC90028 Mean” value in [1] was determined as 2.43 mm. Also, the “RDA (mm) S. aureus BD14312 Mean” value in [2] is on record as 1.285 mm. Besides, the “RDA (mm) S. aureus ATCC29213 Mean” value in [3] (setting [8]) is 8.755 mm; in assay [3] (mean of three measurements, Table 1), 2.215 mm. The “RDA (mm) E. coli 37.4 Mean” value in the assay on Escherichia coli 37.4 (setting [8]) is recorded as 5.604 mm; in the assay on Escherichia coli 37.4 (mean of six measurements, Table 1), 3.529 mm.

With CNYITELRRQHARASHLGLAR [CNY21], the “pore formation and leakage of liposomes, order of efficiency” value (from here on “pore formation and leakage of liposomes”) in assay [4] is recorded as “CNY21H-L≈CNY21H-K>CNY21>CNY21H-P≧CNY21 R-S”. The “binding to lipid membranes” value in [5] was “binds to zwitterionic and anionic lipid membranes”. Further, in assay [6], the “RDA mean value, P. aeruginosa” value is given as 5.00. Besides, the “RDA mean value, E. coli” value with Escherichia coli 37.4 (100 μM of peptides, n=9) turned out to be 6.02. Moreover, in assay [7], the “heparin binding, competition by unlabelled heparin” value is “inhibited the binding”.

Consider CNYITELRRQKARASKLGLAR [CNY21H-K], for which the “antibacterial effect in RDA” value in the assay with P. aeruginosa 27.1 is given as “larger anti-bacterial effect”. In assay [4], the “pore formation and leakage of liposomes” value is recorded as “CNY21H-L≈CNY21H-K>CNY21>CNY21H-P≧CNY21 R-S”.

Turning to CNYITELRRQLARASLLGLAR [CNY21H-L], the “antibacterial effect in RDA” value in the assay on P. aeruginosa 27.1 is recorded as “larger anti-bacterial effect”. For the same molecule, the “pore formation and leakage of liposomes” value in assay [4] is recorded as “CNY21H-L≈CNY21H-K>CNY21>CNY21H-P≧CNY21 R-S”.

On to CNYITELRRQPARASPLGLAR [CNY21H-P], for which the “antibacterial effect in RDA” value in the assay on P. aeruginosa 27.1 was “no antimicrobial effects”. Further, in assay [4], the “pore formation and leakage of liposomes” value was “CNY21H-L≈CNY21H-K>CNY21>CNY21H-P≧CNY21 R-S”.

CNYITELSSQHASASHLGLAR [CNY21R-S]: the “pore formation and leakage of liposomes” value in assay [4] was “CNY21H-L≈CNY21H-K>CNY21>CNY21H-P≧CNY21 R-S”. The “binding to lipid membranes” value in assay [5] is “CNY21 shows a higher binding tendency than CNY21 R-S”.
